The source made the active and inactive calls.
Tests used:
Format in all cases: functional, organism-based
Rattus norvegicus [1] = assay: Anti-asthmatic activity against ovalbumin-induced asthmatic Sprague-Dawley rat model assessed as reduction in total IgE level in serum at 4.5 to 18 mg/kg, po for 7 days by ELISA; conditions: dose 4.5-18 mg/kg, time 7.0 day
Rattus norvegicus [2] = assay: Anti-asthmatic activity against ovalbumin-induced asthmatic Sprague-Dawley rat model assessed as reduction in OVA specific IgE level in serum at 4.5 to 18 mg/kg, po for 7 days by ELISA; conditions: dose 4.5-18 mg/kg, time 7.0 day
Rattus norvegicus [3] = assay: Anti-asthmatic activity against ovalbumin-induced asthmatic Sprague-Dawley rat model assessed as reduction in total IgE level in BALF at 4.5 to 18 mg/kg, po for 7 days by ELISA; conditions: dose 4.5-18 mg/kg, time 7.0 day
Rattus norvegicus [4] = assay: Anti-asthmatic activity against ovalbumin-induced asthmatic Sprague-Dawley rat model assessed as reduction in OVA specific IgE level in BALF at 4.5 to 18 mg/kg, po for 7 days by ELISA; conditions: dose 4.5-18 mg/kg, time 7.0 day
Rattus norvegicus [5] = assay: Anti-asthmatic activity against ovalbumin-induced asthmatic Sprague-Dawley rat model assessed as reduction in OVA specific IgE level in serum at 4.5 to 9 mg/kg, po for 7 days by ELISA; conditions: dose 4.5-9 mg/kg, time 7.0 day, DDE = dose-dependent effect
Rattus norvegicus [6] = assay: Anti-asthmatic activity against ovalbumin-induced asthmatic Sprague-Dawley rat model assessed as reduction in OVA specific IgE level in BALF at 4.5 to 9 mg/kg, po for 7 days by ELISA; conditions: dose 4.5-9 mg/kg, time 7.0 day, DDE = dose-dependent effect
Rattus norvegicus [7] = assay: Anti-asthmatic activity against ovalbumin-induced asthmatic Sprague-Dawley rat model assessed as reduction in eotaxin level in BALF at 4.5 to 18 mg/kg, po for 7 days by ELISA; conditions: dose 4.5-18 mg/kg, time 7.0 day
Rattus norvegicus [8] = assay: Anti-asthmatic activity against ovalbumin-induced asthmatic Sprague-Dawley rat model assessed as reduction in IL-4 cytokine level in BALF at 4.5 to 18 mg/kg, po for 7 days by ELISA; conditions: dose 4.5-18 mg/kg, time 7.0 day
Rattus norvegicus [9] = assay: Anti-asthmatic activity against ovalbumin-induced asthmatic Sprague-Dawley rat model assessed as reduction in IL-5 cytokine level in BALF at 4.5 to 18 mg/kg, po for 7 days by ELISA; conditions: dose 4.5-18 mg/kg, time 7.0 day
Rattus norvegicus [10] = assay: Anti-asthmatic activity against ovalbumin-induced asthmatic Sprague-Dawley rat model assessed as reduction in IL-13 cytokine level in BALF at 4.5 to 18 mg/kg, po for 7 days by ELISA; conditions: dose 4.5-18 mg/kg, time 7.0 day
Rattus norvegicus [11] = assay: Anti-asthmatic activity against ovalbumin-induced asthmatic Sprague-Dawley rat model assessed as reduction in inflammatory cell infiltration in lungs at 4.5 to 18 mg/kg, po for 7 days by H and E staining based microscopic analysis; conditions: dose 4.5-18 mg/kg, time 7.0 day
Rattus norvegicus [12] = assay: Anti-asthmatic activity against ovalbumin-induced asthmatic Sprague-Dawley rat model assessed as reduction in airway epithelial thickening in lungs at 4.5 to 18 mg/kg, po for 7 days by H and E staining based microscopic analysis; conditions: dose 4.5-18 mg/kg, time 7.0 day
Rattus norvegicus [13] = assay: Anti-asthmatic activity against ovalbumin-induced asthmatic Sprague-Dawley rat model assessed as reduction in NFkappaB protein expression in lungs at 4.5 to 18 mg/kg, po for 7 days by immunohistochemistry analysis; conditions: dose 4.5-18 mg/kg, time 7.0 day
Rattus norvegicus [14] = assay: Anti-asthmatic activity against ovalbumin-induced asthmatic Sprague-Dawley rat model assessed as reduction in NFkappaB protein expression in lungs at 4.5 to 18 mg/kg, po for 7 days by western blot analysis; conditions: dose 4.5-18 mg/kg, time 7.0 day
Rattus norvegicus [15] = assay: Anti-asthmatic activity against ovalbumin-induced asthmatic Sprague-Dawley rat model assessed as reduction in AMCase mRNA expression in lungs at 4.5 to 18 mg/kg, po for 7 days by qRT-PCR analysis; conditions: dose 4.5-18 mg/kg, time 7.0 day
Rattus norvegicus [16] = assay: Anti-asthmatic activity against ovalbumin-induced asthmatic Sprague-Dawley rat model assessed as reduction in CCL11 mRNA expression in lungs at 4.5 to 18 mg/kg, po for 7 days by qRT-PCR analysis; conditions: dose 4.5-18 mg/kg, time 7.0 day
Rattus norvegicus [17] = assay: Anti-asthmatic activity against ovalbumin-induced asthmatic Sprague-Dawley rat model assessed as reduction in CCR3 mRNA expression in lungs at 4.5 to 18 mg/kg, po for 7 days by qRT-PCR analysis; conditions: dose 4.5-18 mg/kg, time 7.0 day
Rattus norvegicus [18] = assay: Anti-asthmatic activity against ovalbumin-induced asthmatic Sprague-Dawley rat model assessed as reduction in YM2 mRNA expression in lungs at 4.5 to 18 mg/kg, po for 7 days by qRT-PCR analysis; conditions: dose 4.5-18 mg/kg, time 7.0 day
Rattus norvegicus [19] = assay: Anti-asthmatic activity against ovalbumin-induced asthmatic Sprague-Dawley rat model assessed as reduction in E-selectin mRNA expression in lungs at 4.5 to 18 mg/kg, po for 7 days by qRT-PCR analysis; conditions: dose 4.5-18 mg/kg, time 7.0 day

Measured: Activity

O=C(/C=C/c1ccc(O)c(O)c1)O[C@H](Cc1ccc(O)c(O)c1)C(=O)O
active: Rattus norvegicus [1] | Rattus norvegicus [2] | Rattus norvegicus [3] | Rattus norvegicus [4] | Rattus norvegicus [5] Dde | Rattus norvegicus [6] Dde | Rattus norvegicus [7] | Rattus norvegicus [8] | Rattus norvegicus [9] | Rattus norvegicus [10] | Rattus norvegicus [11] | Rattus norvegicus [12] | Rattus norvegicus [13] | Rattus norvegicus [14] | Rattus norvegicus [15] | Rattus norvegicus [16] | Rattus norvegicus [17] | Rattus norvegicus [18] | Rattus norvegicus [19]
